Inconclusive results and toxic doses are left out. No stated cut-off is given here; in the data, active means T/C of 150% or more; inactive means T/C below 125%.
System: L1210 leukemia ip in BDF1 mice, survival T/C
Experiment: NCI In Vivo Anticancer Drug Screen. Data for tumor model L1210 Leukemia (intraperitoneal) in B6D2F1 (BDF1) mice
Settings: endpoint: mean survival time, higher = longer survival
Outline: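 Tumor cells were implanted, animals were treated, and survival was followed. The result divides the treated measurement by the vehicle-control measurement.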

[1] = dose: 100.0 mg/kg/injection, schedule: Q01DX001 (ip), vehicle: saline
[2] = dose: 200.0 mg/kg/injection, schedule: Q01DX001 (ip), vehicle: saline
[3] = dose: 200.0 mg/kg/injection, schedule: Q04DX002 (ip), vehicle: saline with Tween-80

Measured: T/C

C=C1CC2(CCCC3(CC(=C)C(=O)O3)C2(C)C)OC1=O (configuration not stated)
inactive: [1] 102 % of control | [2] 119 % of control

N=C(N)N=Nc1ccc(NN=C(N)N)c2ccccc12
inactive: dose: 15.0 mg/kg/injection, schedule: Q01DX Z (ip), vehicle: saline 94 % of control | dose: 15.0 mg/kg/injection, schedule: Q01DX Z (oral), vehicle: other 103 % of control | dose: 30.0 mg/kg/injection, schedule: Q01DX Z (ip), vehicle: saline 102 % of control | dose: 30.0 mg/kg/injection, schedule: Q01DX Z (oral), vehicle: other 98 % of control | dose: 60.0 mg/kg/injection, schedule: Q01DX Z (oral), vehicle: other 98 % of control | dose: 120.0 mg/kg/injection, schedule: Q01DX Z (oral), vehicle: other 95 % of control

CCOC(=O)C1=C(C)NC(C)=C(C(=O)OCC)C1c1ccnc2ccccc12
inactive: dose: 100.0 mg/kg/injection, schedule: Q01DX001 (ip), vehicle: steriod suspending solution 93 % of control | dose: 200.0 mg/kg/injection, schedule: Q01DX001 (ip), vehicle: steriod suspending solution 94 % of control | dose: 400.0 mg/kg/injection, schedule: Q01DX001 (ip), vehicle: steriod suspending solution 89 % of control

CCc1nc2nnnn2c(CC)c1-c1ccccc1O
inactive: dose: 100.0 mg/kg/injection, schedule: Q04DX002 (ip), vehicle: saline with Tween-80 98 % of control | [3] 104 % of control | dose: 400.0 mg/kg/injection, schedule: Q04DX002 (ip), vehicle: saline with Tween-80 88 % of control

COc1ccc(C2C=CC(c3ccccc3)C(c3ccccc3)C2[N+](=O)[O-])cc1OC (configuration not stated)
inactive: dose: 100.0 mg/kg/injection, schedule: Q04DX003 (ip), vehicle: saline with Tween-80 96 % of control | dose: 200.0 mg/kg/injection, schedule: Q04DX003 (ip), vehicle: saline with Tween-80 94 % of control | dose: 400.0 mg/kg/injection, schedule: Q04DX003 (ip), vehicle: saline with Tween-80 104 % of control

CC(C)=CCC/C(C)=C/COC(=O)C(CC=C(C)C)CCN1CCN(C)CC1 (configuration not stated)
inactive: dose: 100.0 mg/kg/injection, schedule: Q04DX003 (ip), vehicle: Klucel (hydroxypropylcellulose) (HPC) 104 % of control | dose: 200.0 mg/kg/injection, schedule: Q04DX003 (ip), vehicle: Klucel (hydroxypropylcellulose) (HPC) 93 % of control | dose: 400.0 mg/kg/injection, schedule: Q04DX003 (ip), vehicle: Klucel (hydroxypropylcellulose) (HPC) 104 % of control

O=C(O)CNCc1cccc(Br)c1
inactive: dose: 100.0 mg/kg/injection, schedule: Q01DX009 (ip), vehicle: saline 103 % of control | dose: 100.0 mg/kg/injection, schedule: Q04DX003 (ip), vehicle: saline 95 % of control | dose: 200.0 mg/kg/injection, schedule: Q01DX009 (ip), vehicle: saline 92 % of control | dose: 200.0 mg/kg/injection, schedule: Q04DX003 (ip), vehicle: saline 113 % of control | dose: 400.0 mg/kg/injection, schedule: Q01DX009 (ip), vehicle: saline 98 % of control | dose: 400.0 mg/kg/injection, schedule: Q04DX003 (ip), vehicle: saline 98 % of control

Oc1ccccc1CNCc1ccccc1O
inactive: dose: 75.0 mg/kg/injection, schedule: Q01DX001 (ip), vehicle: saline 96 % of control | dose: 150.0 mg/kg/injection, schedule: Q01DX001 (ip), vehicle: saline 96 % of control

O=C(O)c1cccc2c1-c1ccccc1C(Br)C2Br (configuration not stated)
inactive: [3] 101 % of control

CCCCOCCCNC(F)(F)C(=O)Nc1ccc(S(=O)(=O)c2ccc(NC(=O)C(F)(F)NCCCOCCCC)cc2)cc1
inactive: [1] 113 % of control | [2] 97 % of control | dose: 400.0 mg/kg/injection, schedule: Q01DX001 (ip), vehicle: saline 94 % of control

CN1CCN(Cc2nc3cccc4c3c([n+]2[O-])-c2ccccc2-4)CC1
inactive: dose: 12.5 mg/kg/injection, schedule: Q01DX009 (ip), vehicle: saline with Tween-80 101 % of control | dose: 25.0 mg/kg/injection, schedule: Q01DX009 (ip), vehicle: saline with Tween-80 105 % of control | dose: 50.0 mg/kg/injection, schedule: Q01DX009 (ip), vehicle: saline with Tween-80 103 % of control | dose: 100.0 mg/kg/injection, schedule: Q01DX009 (ip), vehicle: saline with Tween-80 114 % of control | dose: 200.0 mg/kg/injection, schedule: Q01DX009 (ip), vehicle: saline with Tween-80 123 % of control

Source: PubChem BioAssay AID248 (DTP/NCI, 2004)
